The values that follow come from ChEMBL document CHEMBL1201862, “PubChem BioAssay data set” (2004).

The structures appear in SMILES notation.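 1) Cells in 96-well plates. 2) Compound, 48 h, 5 concentrations. 3) Linear interpolation between surrounding doses. 4) Unreached endpoint = highest concentration. Abbreviation: GI50, concentration required for 50% inhibition of growth.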 Activity calls are given as the source filed them. No stated cut-off is given here; in the data, active = GI50 up to about 1.1 µM and inactive = higher.

Among the test systems are SN12C; DMS-114; NCI-H460; LXFL 529; HCC 2998; SK-MEL-28; SF-295; HOP-92; NCI/ADR-RES; KM-20L2; M19-MEL; EKVX; SF-539; UACC-62; MDA-MB-231; MDA-N; BT-549; 786-0; PC-3; MDA-MB-435.
Common to all, as to experiment: inhibition of tumour cell growth, NCI panel, 48 h

Consider `COc1ccc(C2N(NC(=O)c3ccncc3)C(=O)CS2(=O)=O)cc1F` (stereo not given), for which the GI50 in the assay with SN12C, with DMS-114, with NCI-H460, with LXFL 529, in the assay with HCC 2998 and in the assay on SK-MEL-28 was > 100 µM (inactive) throughout. The GI50 in the assay on SF-295 and in the assay with HOP-92 was > 100 µM (inactive) each time.
Turning to `CC1[C@@H]2CC=C3C4CCC5Cc6nc7c(nc6C[C@@]5(C)C4CC(=O)[C@]32CO[C@@]1(O)C(O)CC(C)(C)O)CC1CCC2C3=C[C@H]4O[C@@]5(O[C@@](C)(CO)C[C@@H]5O)C(C)[C@@]4(O)[C@]3(C)[C@@H](O)CC2[C@]1(C)C7` (stereo not given in full), the GI50 with SN12C is 0.274 µM (active); with DMS-114 it was 0.000513 µM (active); in the assay on NCI/ADR-RES it was 0.612 µM (active); with NCI-H460, 0.00151 µM (active); with HCC 2998 it was 0.0243 µM (active); in the assay with KM-20L2 it was 0.0069 µM (active). The GI50 was 0.237 µM (active) in the assay on M19-MEL; 0.000386 µM (active) with EKVX; 0.00201 µM (active) with SF-539; 0.00381 µM (active) in the assay with UACC-62; < 0.00036 µM (active) with SF-295; 0.0041 µM (active) with HOP-92.
On to `CC(=O)[C@H]1CCC2[C@@H]3CC=C4C(O)C(OS(=O)(=O)O)CC[C@]4(C)C3CC[C@@]21C` (stereo not given in full), for which the GI50 in the assay with SN12C, with DMS-114, in the assay with NCI/ADR-RES, in the assay on NCI-H460, in the assay on HCC 2998 and with KM-20L2 was > 100 µM (inactive) each time. Further, the GI50 with M19-MEL, in the assay on EKVX, in the assay on SK-MEL-28, with SF-539, in the assay with UACC-62 and in the assay on SF-295 was > 100 µM (inactive) throughout. Besides, in the assay on HOP-92, the GI50 is > 100 µM (inactive).
Consider `NC1CCCCC1`, for which the GI50 with SN12C is > 562 µM (inactive); with DMS-114 it was > 56.2 µM (inactive); with NCI/ADR-RES it was > 562 µM (inactive); in the assay with NCI-H460 it was 216 µM (inactive); with HCC 2998 it was 310 µM (inactive); in the assay with KM-20L2 it was 192 µM (inactive). For the same compound, the GI50 with M19-MEL is 187 µM (inactive); in the assay on EKVX, 489 µM (inactive); in the assay on SK-MEL-28 it was 318 µM (inactive); in the assay with SF-539 it was 164 µM (inactive); in the assay on UACC-62, 255 µM (inactive); with HOP-92, 258 µM (inactive).
Consider `COc1ccc(/C=N/n2c(C)nc3c(sc(=S)n3-c3ccccc3)c2=O)cc1`, for which the GI50 with NCI-H460 was 31.6 µM (inactive); with LXFL 529, 49 µM (inactive); in the assay with HCC 2998, > 100 µM (inactive); in the assay with M19-MEL it was 63.2 µM (inactive); in the assay on SK-MEL-28, 43.7 µM (inactive); with SF-539, 47.3 µM (inactive). Also, the GI50 with UACC-62 is 60.5 µM (inactive); in the assay on SF-295 it was 37.2 µM (inactive); with HOP-92, 40.7 µM (inactive).
As for `COc1ccccc1C(=O)NCC1CCCN2CCCCC12` (stereo not given), the GI50 with SN12C, in the assay on NCI/ADR-RES, with NCI-H460, with MDA-MB-231, with HCC 2998 and in the assay with EKVX was > 100 µM (inactive) each time. Moreover, the GI50 was > 100 µM (inactive) with MDA-N; > 100 µM (inactive) with SK-MEL-28; > 100 µM (inactive) in the assay with SF-539; > 100 µM (inactive) in the assay on UACC-62; 1.24 µM (inactive) with SF-295; > 100 µM (inactive) with BT-549. Also, the GI50 with 786-0, in the assay with PC-3, with HOP-92 and in the assay with MDA-MB-435 was > 100 µM (inactive) each time.
Turning to `COCCO` [2-METHOXYETHANOL], the GI50 with SN12C, in the assay on NCI/ADR-RES, with NCI-H460, in the assay with HCC 2998, in the assay with KM-20L2 and in the assay on EKVX was > 100 µM (inactive) each time. Besides, the GI50 with SK-MEL-28, in the assay with SF-539, with UACC-62, in the assay with SF-295 and in the assay on HOP-92 was > 100 µM (inactive) in each case.
On to `CCN(CC)C(=O)c1cc(OC(C)C)ccc1-c1c(C)cc(OC(C)C)c(OC)c1OC`, for which the GI50 was 61.4 µM (inactive) with SN12C; 36.5 µM (inactive) in the assay with DMS-114; 36.1 µM (inactive) with NCI-H460; 46.3 µM (inactive) in the assay with HCC 2998; 74 µM (inactive) in the assay with KM-20L2; 60.7 µM (inactive) in the assay with EKVX. Also, the GI50 with SK-MEL-28 was > 100 µM (inactive); in the assay on SF-539 it was 92 µM (inactive); with UACC-62 it was 51.8 µM (inactive).
`CCN1CCC(O)(/C=C/c2ccc(C)cc2)C(C(=O)/C=C/c2ccc(C)cc2)C1` (stereo not given): the GI50 in the assay on SN12C is 7.69 µM (inactive); in the assay on NCI/ADR-RES, 2.61 µM (inactive); in the assay on NCI-H460 it was 4.45 µM (inactive); in the assay on MDA-MB-231, 2.07 µM (inactive); in the assay with HCC 2998, 2.29 µM (inactive); with EKVX it was 13.2 µM (inactive). For the same compound, the GI50 in the assay with MDA-N is 3.18 µM (inactive); in the assay on SK-MEL-28, 5.86 µM (inactive); with SF-539, 3.61 µM (inactive); in the assay with UACC-62, 3.08 µM (inactive); with SF-295, 10.6 µM (inactive); in the assay on BT-549, 3.5 µM (inactive). Also, the GI50 in the assay on 786-0 was 2.08 µM (inactive); with PC-3, 4.49 µM (inactive); with HOP-92, 6.81 µM (inactive); in the assay on MDA-MB-435 it was 2.93 µM (inactive).
With `COc1cc([C@@H]2c3cc4c(cc3[C@@H](c3c(O)cc(O)c5c3O[C@H](c3ccc(O)c(O)c3)[C@@H](O)C5)[C@H]3COC(=O)[C@H]23)OCO4)cc(OC)c1O`, the GI50 with SN12C, with NCI/ADR-RES, in the assay with NCI-H460, in the assay on MDA-MB-231, in the assay with HCC 2998 and in the assay on EKVX was > 100 µM (inactive) in each case. Further, the GI50 in the assay on MDA-N was 34.7 µM (inactive); in the assay on SK-MEL-28, 89.1 µM (inactive); in the assay with SF-539, 58.7 µM (inactive); in the assay on UACC-62, > 100 µM (inactive); in the assay with SF-295, > 100 µM (inactive); in the assay with BT-549, > 100 µM (inactive). The GI50 with 786-0, in the assay on PC-3, in the assay with HOP-92 and in the assay on MDA-MB-435 was > 100 µM (inactive) throughout.
`NC(Cc1c[nH]c2ccccc12)C(=O)O` (stereo not drawn) [DL-TRYPTOPHAN]: the GI50 in the assay on SN12C was 3.74 µM (inactive); in the assay on DMS-114, > 300 µM (inactive); with NCI/ADR-RES it was > 300 µM (inactive); in the assay with NCI-H460 it was > 300 µM (inactive); with HCC 2998, > 300 µM (inactive); in the assay with KM-20L2, > 300 µM (inactive). In addition, the GI50 in the assay on M19-MEL, in the assay with EKVX, in the assay with SK-MEL-28, in the assay on SF-539, in the assay with UACC-62 and with SF-295 was > 300 µM (inactive) in each case. Moreover, in the assay on HOP-92, the GI50 is > 300 µM (inactive).
